Experimental findings from patent publication US7713969B2, “Compositions and methods for treatment of cancer” (ArQule, Inc., priority 2005, dated 2010) are described below.

The test system of the experiment is human tumor cell lines. Kind of experiment: Colony formation assay, summary across cell lines. The experiment is classed as cell-based. As to conditions: c-Met expressing solid tumor types, 24 hours exposure, read-out: IC50 for c-Met expressing solid tumor types (CFA). The protocol:
To determine c-met inhibition, exponentially growing MCF-7 and MDA-MB-231 human breast cancer cells, DLD1 and HT29 human colon cancer cells, PACA2 and PANC-1 human pancreatic cancer cells and NCI-H441 human non-small cell lung cancer cells (H441) were serum starved in 0.5% FBS and treated with increasing amounts of (−)-trans-3-(5,6-dihydro-4H-pyrrolo [3,2,1-ij]quinolin-1-yl)-4(1H-indol-3-yl)pyrrolidine-2,5-dione for 24 hours as indicated. Cells were then left unstimulated or stimulated with 100 ng/mL HGF for 10 minutes and whole cell extracts were prepared. […] Percent inhibition was determined by densitometry using the Scion Image For colony formation assays (CFA), exponentially growing cells were seeded at 2,000 cells per well in 6-well plates and allowed to attach for 24 hours. […] Colonies of greater than 50 cells were scored as survivors and percentage of cell survival was plotted to determine the IC50. […] The IC50 of (−)-trans-3-(5,6-dihydro-4H-pyrrolo[3,2,1-ij]quinolin-1-yl)-4(1H-indol-3-yl) pyrrolidine-2,5-dione for c-Met expressing solid tumor types is in the 0.1-0.7 μM range following exposure to (−)-trans-3-(5,6-dihydro-4H-pyrrolo[3,2,1-ij]quinolin-1-yl)-4(1H-indol-3-yl)pyrrolidine-2,5-dione for 24 hours, as determined by colony formation assay (CFA).

For the compound `O=C1NC(=O)C(c2cn3c4c(cccc24)CCC3)C1c1c[nH]c2ccccc12` (single isomer, unassigned; (-)), the IC50 fell in the range of 100 to 700 nM.

For orientation: IC50 means the concentration that inhibits the measured activity by half.
